Laboratory results as given in patent USH1427H, “Substituted flavonoid compounds, their salts, their manufacture and their use in combination with interleukin-2” (priority 1992, dated 1995).

Assays:
serum IFN = assay type: in vivo; details: Table 1
YAC-1 tumor target = experiment: Augmentation of NK activity, 4-hr 51Cr release assay with effector leukocytes from treated animals; assay type: in vivo, mice; details: Table 1
Description: The immunomodulatory activity of boosting NK activity is readily determined in accordance with the protocol outlined by Wiltrout et al. in J. Exp. Med. (1984), vol. 160, p. 1431-1449, which is hereby incorporated by reference. Using this protocol, the flavonoid compounds of the present invention must be capable of boosting NK activity at least 2-fold, preferably at least 3-fold, and most preferably at least 4-fold, as measured in lytic units. (See "In Vitro Methods in Cell Mediated and Tumor Immunity", eds. Barry R. Bloom and John R. David, pub. Academic Press (1976), p. 427, for the definition of lytic units.)
Assessment of NK activity. […] Effector leukocytes were isolated from spleen, peritoneal cavity, lungs, and liver as previously described (J. Exp. Med., vol. 160, 1431 (1984) and J. Immunol., vol. 135, 1477 (1985)). NK activity was expressed as either [formula] or LU/1×10^7 cells, with one LU being the number of effector cells required to lyse 20% or 40% of the target cells. Statistical comparisons in NK activity were performed by the student's t-test.
Peak levels of NK-mediated lysis were generally achieved by 24 hour post injection, with levels of NK activity decreasing to background by about day 6.

[1] = test system: Renca renal adenocarcinoma; experiment: Survival of Renca-bearing mice treated with flavonoid and/or rIL-2; assay type: in vivo, BALB/C mice; details: Table 1, flavonoid plus rIL-2
Description: Tumor model. The model used for these studies is the Renca renal adenocarcinoma, a tumor that originated spontaneously and is maintained by serial transplant in BALB/C mice (JNCI, vol. 50, 1013 (1973)). […] After injection of 1×10^5 tumor cells under the renal capsule, the solid tumor mass develops rapidly with direct extension to the peritoneal cavity by days 7 to 9 and metastasis to regional lymph nodes and the liver shortly thereafter. […] Flavonoid was administered by injection of 125 mg/kg i.v. and 125 mg/kg i.p., whereas various doses of rIL-2 were delivered by the i.p. route. Routinely, flavonoid was administered 2 to 4 h after nephrectomy of the primary tumor-bearing kidney on day 11, and rIL-2 was administered once per day for 4 successive days beginning on the day after nephrectomy and FAA treatment. Statistical analysis of survival data was performed by the .chi.^2 test.
The flavonoid compound was administered by injection of e.g. 125 mg/kg i.v. and e.g. 125 mg/kg i.p., whereas various doses of rIL-2 were delivered by the i.p. route. Routinely, flavonoid compound was administered 2 to 4 hours after nephrectomy of the primary tumor-bearing kidney on day 11 and rIL-2 was administered once per day for 4 successive days beginning on the day after nephrectomy and flavonoid treatment. Statistical analysis of survival data was performed by the .chi.^2 test.
BALB/C mice (e.g. 10/group) were injected i.v. with 1×10^5 Renca tumor cells on day 0. On day 11 the tumor-bearing kidney was removed and 2 to 4 h later flavonoid (125 mg/kg i.v.+125 mg/kg i.p.) was administered to appropriate groups. Subsequently, beginning on day 12, some of the flavonoid pretreated mice and two groups of previously untreated mice received four daily i.p. injections of rIL-2 at doses of 30,000 U/day. Mice were then monitored for survival and statistical analyses performed by the .chi.^2 test.

[2] = test system: metastatic renal cell cancer; details: clinical trial, selected patients; Marshal et al.; cited from earlier work
[3] = Preliminary preclinical therapeutic synergy between coumarin and rIL2; assay type: in vivo; details: preliminary preclinical experiments
Description: In another publication, Wiltrout et al., J. Natl. Cancer Inst.

[4] = test system: Renca murine renal cancer; details: combined doxorubicin and adoptive immunotherapy with rIL-2; cited from earlier work
natural killer activity [5] = details: cited from earlier work
[6] = test system: established murine renal cancer; details: established murine renal cancer in BALB/c mice; cited from earlier work
interferon = details: preliminary studies, Wiltrout et al.; cited from earlier work
natural killer activity [7] = details: preliminary studies, Wiltrout et al.; cited from earlier work
Lewis lung carcinoma = details: cited from earlier work

## O=C(O)Cc1cccc2c(=O)cc(-c3ccco3)oc12 [LM2888]
Serum IFN
  IFN: I
YAC-1 tumor target
  NK: +
[1]
  Synergistic Therapy With IL-2: I

## COc1cccc(-c2cc(=O)c3cccc(CC(=O)O)c3o2)c1 [LM2889]
Serum IFN
  IFN: +
YAC-1 tumor target
  NK: +
[1]
  Synergistic Therapy With IL-2: +

## C=C(C(=O)O)c1cccc2c(=O)cc(-c3ccccc3)oc12 [LM2891]
Serum IFN
  IFN: +
YAC-1 tumor target
  NK: +
[1]
  Synergistic Therapy With IL-2: +

## O=c1ccc2ccccc2o1 [coumarin]
[2]
  anti-tumor activity in patients with metastatic renal cell cancer: demonstrated anti-tumor activity
[3]
  therapeutic synergy between coumarin and rIL2: no therapeutic synergy was observed

## COc1cccc2c1C(=O)c1c(O)c3c(c(O)c1C2=O)C[C@@](O)(C(=O)CO)C[C@@H]3O[C@H]1C[C@H](N)[C@H](O)[C@H](C)O1 [doxorubicin]
[4]
  treatment of Renca murine renal cancer: successfully treated

## O=C(O)Cc1cccc2c(=O)cc(-c3ccccc3)oc12 [flavone-8-acetic acid]
Natural killer activity [5]; combination with rIL-2, normal and tumor-bearing mice, Wiltrout et al.
  natural killer activity, flavone-8-acetic acid plus rIL-2: synergistically augmented natural killer activity
Natural killer activity [5]; liver, lungs, spleen, Wiltrout et al.
  natural killer activity in nonlymphoid organs (liver and lungs) as well as in the spleen: could augment natural killer activity in nonlymphoid organs (liver and lungs) as well as in the spleen
Natural killer activity [5]; spleen, Ching et al.
  splenic natural killer activity: augments splenic natural killer activity
[6]
  anti-tumor effects, combination of flavone-8-acetic acid plus interleukin-2: synergistic anti-tumor effects
interferon
  induction of interferon in vitro: failed to detect induction of interferon
Natural killer activity [7]
  augmentation of natural killer activity in vitro: failed to detect
Lewis lung carcinoma; administered ip, diffusion chambers, Finlay et al.
  susceptibility of Lewis lung carcinoma cells implanted in diffusion chambers in the peritoneum: not susceptible
Lewis lung carcinoma; in vivo, mice, Finlay et al.
  anti-tumor effects against Lewis lung carcinoma: pronounced anti-tumor effects
Lewis lung carcinoma; mouse, in vivo
  tumoricidal activity in vivo compared with direct cytotoxic effects in vitro: more pronounced and occurs more rapidly in vivo than direct cytotoxic effects observed in vitro
